Measured values from patent US20070219220A1, “Pyrazolopyrimidinethione Derivatives, Salts and Solvates Thereof, Preparation Methods and Use Thereof” (priority 2003, published 2007).
Like-named read-outs stand apart in the source and are kept apart here. Marks after values point to notes of the source that are not given here.

Columns and labels:
[1] = tested on: rats with testis removed; test: Penile erection caused by stimulating electric current in rats with testes removed (Example 7); type: in vivo, wistar rats; settings: for Latent period / Swelling time: stimulation 35 min after administration; for penile swelling time (in words) / latent period of the penile erection (in words): compared with control; for latent period of the penile erection (in words): P<0.001
Excerpt: Methods: Forty healthy adult male wistar rats were used in the study, with the body weight ranging from 230 g to 250 g. The rats were anesthetized with sodium pentobarbital, and their testes were squeezed into the scrotum. After sterilization, the scrotum was dissected with an operation knife. The testes and epididymis were taken out respectively and then ligated. The wound were sutured and 100,000 unit of penicillin was administrated to each rat for three consecutive days. After breeding for one week, the rats were used for the tests. The animals may be used repeatedly and the interval between any two of the tests was one week. […] Sildenafil at the dose of 50 mg/kg was used as the positive control. The control group is (1% sodium carboxymethyl cellulose). In 35 min after the administration, the penis of the rats was stimulated with SEN-3201 stimulator (NIHON KOHDEN, Japan), with the following parameters: the stimulating voltage of 10V, the time interval (T1) of 250 msec, the deferment time (T2) of 10 msec, the duration (T3) of 500 μsec, and the stimulation rank (n) of 25. At the same time, the latent period (sec) of the penile erection and the penile swelling time (min) were recorded with a three-channel stop-watch.

[2] = tested on: healthy mice; settings: within two hours, cited from earlier work
[3] = tested on: mice with testis removed; test: Sexual function (back climbing) of testis-removed mice (Example 10); type: in vivo, KM mice; settings: for Incidence: back climbing within 2 hours after administration; for Number of the animals who performed back climbing / Times of back climbing: within 2 hours after administration; for Number of the animals who performed back climbing: 10 male mice
Excerpt: Methods: Forty healthy KM male mice with the body weight ranging from 28-32 g and forty healthy KM female mice with body weight ranging from 24-28 g were used. Each male mouse was anesthetized with sodium pentobarbital, and the testes were squeezed into the scrotum. After sterilization, the scrotum was dissected with an operating knife. The testes and epididymis were respectively taken out, and then ligated. The wound were sutured and each of the mice was administrated with 100,000 units of penicillin for three consecutive days. After being bred for one week, the mice were used for the tests. The animals may be employed repeatedly and the interval between any two tests was 72 hours. To the mice, the following compounds were orally administered: compound (1), compound (2), compound (3), and compound (4), each at the dose of 80 mg/kg and 40 mg/kg, respectively. The positive control agent was Sildenafil, at the dose of 80 mg/kg. The control group was given with 1% of sodium carboxymethyl cellulose. At 30 min after the administration, the male mice who had taken the above agents were put into the cages of female mice, with the male-to-female rate of 1:1. There were three males and three females in each cage. The times of back climbing on the female mice performed by the male mice, and the percentage of occurrence were observed within 2 hours after the administration.

[4] = cited from earlier work
[5] = tested on: anesthetized dogs; test: Blood pressure, heart rate and respiration of anesthetized dogs (Example 11); type: in vivo; settings: for arterial blood pressure (systolic and diastolic), heart rate and respiration (frequency and depth), in words: oral 40 mg/kg, in 3 hours after administration
Experimental: Methods: eight healthy male dogs with the body weight ranging from 12-15 kg were used. The dogs were anesthetized with 30 mg/kg of sodium pentobarbital. The femoral artery was dissected and inserted with a blood pressure transducer to record the blood pressure. The limbs were pierced with electrodes for recording the electrocardiogram. The respiration belt was wrapped around their chest and the respiration rate was recorded. The apparatus used was RM-6000 Polygraph system (NIHON KOHDEN, Japan). The changes in the arterial blood pressure, the heart rate, and the respiration were observed after the test compound was introduced into the stomach of the anesthetized dogs via 14# catheter.

[6] = tested on: rats with testis removed; test: Duration of penile erection in rats with testis removed (Example 8); type: in vivo, wistar rats; settings: oral 50 mg/kg
[7] = tested on: anesthetized rats; test: Blood pressure and heart rate of anesthetized rats (Example 12); type: in vivo, wistar rats
Experimental: Forty male wistar rats with the body weight ranging from 220-240 g were used in the study. Pharmaceuticals: compound (2) and Sildenafil, which were ground and then suspended with 1% of sodium carboxymethyl cellulose. Apparatus: RM-6000 eight-graph system (NIHON KOHDEN, Japan). The doses for administration and the division of the groups: solvent control group (abbreviated as the control group), 20 mg/kg of compound (2), 40 mg/kg of compound (2), 80 mg/kg of compound (2), and 50 mg/kg of Sildenafil. The administration route is through dodecadactylon. Methods: the male wistar rats were taken out and anesthetized with 35 mg/kg of sodium pentobarbital by injecting into the abdominal cavity, on the basis of their body weight. The rats were fixed on the operation table and were performed with the dissection operation of right carotid artery. The catheter with an external diameter of 1 mm was inserted into the right carotid artery. The blood pressure was measured and the electrodes positioned on the skin of the four limbs were used to record the electrocardiogram limb lead II. The catheter with an external diameter of 2 mm was inserted into the dodecadactylon via incision of the epigastric region, for the administration of the pharmaceuticals. RM-6000 eight-graph system (NIHON KOHDEN, Japan) was employed to record. Observation time: the value before administration, the values at 15, 30, 60, 120 and 180 min after the administration.

[8] = Preliminary acute toxicity, Bliss method (Example 13); settings: rat, in vivo, oral and intragastric administration, rats
Experimental: Experimental methods: the toxicity test was conducted by oral and intragastric administration of the pyrazolopyrimidinethione derivatives of the invention using the Bliss method.

[9] = tested on: dog; settings: cited from earlier work
[10] = prior-art filings, background section
[11] = 50 mg/kg through dodecadactylon, at 15 min after administration
[12] = 50 mg/kg through dodecadactylon, at 30 min after administration
[13] = 50 mg/kg through dodecadactylon, at 60 min after administration
[14] = 50 mg/kg through dodecadactylon, at 120 min after administration
[15] = 50 mg/kg through dodecadactylon, value before administration

## CCCc1nn(C)c2c(=O)[nH]c(-c3cc(S(=O)(=O)N4CCN(C)CC4)ccc3OCC)nc12 [Sildenafil, reference compound]
[1]; oral 50 mg/kg
  Latent period: 28.9 ± 1.7 s
  Swelling time: 2272.5 ± 326.2 s
[2]; oral 50 mg/kg
  occurrences of back climbing: 50%
  times of back climbing on the female mice performed by the male mice: 19
[3]; oral 80 mg/kg
  Incidence: 70%
  Number of the animals who performed back climbing: 6*
[4]; as reported in Chinese Journal of Clinical Pharmacology and Therapeutics (1999, 4(3): 237-240)
  LD50: 635 mg/kg
[4]; [10]
  LD50: 635 mg/kg
[5]; Sildenafil 40 mg/kg, mainly diastolic pressure
  blood pressure (in words): apparent effect of decreasing the blood pressure
[6]
  how long the penile swelling effect lasts after administration: about 1 hour
[6]; at 1 h after administration
  Penile swelling time: 1067.0 ± 204.5 s
[6]; at 3 h after administration
  Penile swelling time: 44.0 ± 11.3 s
[6]; at 3 hr after the administration
  penile swelling time compared with control group (in words): shorter than that of the control group
[6]; at 6 h after administration
  Penile swelling time: 38.8 ± 5.6 s
[6]; at 24 h after administration
  Penile swelling time: 61.0 ± 8.7 s
[6]; value before administration
  Penile swelling time: 62.8 ± 7.7 s
[7]; 50 mg/kg through dodecadactylon
  blood pressure (in words): began to decrease at 15 min after the administration
[7]; [11]
  Heart rate: 445 ± 29.7 times/min
  Systolic pressure: 90 ± 29.7 mmHg
  diastolic pressure: 68 ± 29.7 mmHg
[7]; [12]
  Heart rate: 444 ± 29.6 times/min
  Systolic pressure: 90 ± 29.6 mmHg
  diastolic pressure: 70 ± 29.6 mmHg
[7]; [13]
  Heart rate: 437 ± 22.8 times/min
  Systolic pressure: 88 ± 22.9 mmHg
  diastolic pressure: 68 ± 22.9 mmHg
[7]; [14]
  Heart rate: 439 ± 22.6 times/min
  Systolic pressure: 93 ± 22.6 mmHg
  diastolic pressure: 71 ± 22.6 mmHg
[7]; 50 mg/kg through dodecadactylon, before administration
  Heart rate: 429 ± 26.1 times/min
[7]; [15]
  Systolic pressure: 120 ± 10.6 mmHg
  diastolic pressure: 98 ± 16.0 mmHg
[7]; 50 mg/kg, at 15 and 30 minutes after administration
  effect on the heart rate (in words): increasing the heart rate

## CCCc1nn(C)c2c(=O)[nH]c(-c3cc(S(=O)(=O)N4C[C@@H](C)N[C@@H](C)C4)ccc3OCC)nc12 [5-[2-ethoxy-5-(cis-3,5-dimethylpiperazin-1-sulfonyl)phenyl]-1-methyl-3-n-propyl-1,6-dihydro-7H-pyrazolo[4,3d]pyrimidin-7-one]
[4]; [10]
  LD50: 772.5 to 1052.1 mg/kg

## CCCOc1ccc(S(=O)(=O)N2C[C@@H](C)N[C@@H](C)C2)cc1-c1nc2c(CCC)nn(C)c2c(=S)[nH]1 [Compound (4), 5-[2-propoxy-5-(cis-3,5-dimethylpiperazin-1-sulfonyl)phenyl]-1-methyl-3-n-propyl-1,6-dihydro-7H-pyrazolo[4,3-d]pyrimidin-7-thione]
[1]
  penile swelling time (in words): lengthened
  latent period of the penile erection (in words): evidently shortened
[8]
  LD50: > 3000 mg/kg
[3]; oral 40 mg/kg
  Incidence: 20%
  Times of back climbing: 3
  Number of the animals who performed back climbing: 2
[3]; oral 80 mg/kg
  Incidence: 30%
  Times of back climbing: 5
  Number of the animals who performed back climbing: 3
[5]
  arterial blood pressure (systolic and diastolic), heart rate and respiration (frequency and depth), in words: did not experience an evident change

## CCCc1nn(CC)c2c(=O)[nH]c(-c3cc(S(=O)(=O)N4C[C@@H](C)N[C@@H](C)C4)ccc3OCC)nc12 [5-[2-ethoxy-5-(cis-3,5-dimethylpiperazine-1-sulfonyl)phenyl]-1-ethyl-3-n-propyl-1,6-dihydro-7H-pyrazolopyrimidin-7-one]
[2]; oral 15 mg/kg
  occurrences of back climbing: 56.6%
  times of back climbing on the female mice performed by the male mice: 43
[2]; oral 30 mg/kg
  occurrences of back climbing: 62.5%
  times of back climbing on the female mice performed by the male mice: 53
[4]; [10]
  LD50: greater than 2000 mg/kg
[9]
  diastolic pressure and heart rate (in words): dramatically decrease diastolic pressure and increase heart rate

## CCCc1nn(CC)c2c(=S)[nH]c(-c3cc(S(=O)(=O)N4C[C@@H](C)N[C@@H](C)C4)ccc3OCC)nc12 [Compound (1), 5-[2-ethoxy-5-(cis-3,5-dimethylpiperazin-1-sulfonyl)phenyl]-1-ethyl-3-n-propyl-1,6-dihydro-7H-pyrazolo[4,3-d]pyrimidin-7-thione]
[1]
  penile swelling time (in words): lengthened
  latent period of the penile erection (in words): evidently shortened
[1]; compared with sildenafil 50 mg/kg
  penile swelling time compared with positive control sildenafil (in words): more evident
[1]; oral 20 mg/kg
  Latent period: 28.8 ± 1.7 s
  Swelling time: 1305.1 ± 588.8 s
[1]; oral 40 mg/kg
  Latent period: 29.5 ± 4.2 s
  Swelling time: 2943.1 ± 552.9 s
[8]
  LD50: > 3000 mg/kg
[3]; oral 40 mg/kg
  Incidence: 30%
  Times of back climbing: 4
  Number of the animals who performed back climbing: 3
[3]; oral 80 mg/kg
  Incidence: 40%
  Times of back climbing: 7*
  Number of the animals who performed back climbing: 4
[5]
  arterial blood pressure (systolic and diastolic), heart rate and respiration (frequency and depth), in words: did not experience an evident change

## CCCc1nn(C)c2c(=S)[nH]c(-c3cc(S(=O)(=O)N4C[C@@H](C)N[C@@H](C)C4)ccc3OC)nc12 [Compound (3), 5-[2-methoxy-5-(cis-3,5-dimethylpiperazin-1-sulfonyl)phenyl]-1-methyl-3-n-propyl-1,6-dihydro-7H-pyrazolo[4,3-d]pyrimidin-7-thione]
[1]
  penile swelling time (in words): lengthened
  latent period of the penile erection (in words): evidently shortened
[1]; oral 20 mg/kg
  Latent period: 32.8 ± 4.4 s
  Swelling time: 551.8 ± 350.8 s
[1]; oral 40 mg/kg
  Latent period: 30.4 ± 2.6 s
  Swelling time: 809.6 ± 247.5 s
[8]
  LD50: 2500 mg/kg
[3]; oral 40 mg/kg
  Incidence: 20%
  Times of back climbing: 2
  Number of the animals who performed back climbing: 2
[3]; oral 80 mg/kg
  Incidence: 30%
  Times of back climbing: 4
  Number of the animals who performed back climbing: 3
[5]
  arterial blood pressure (systolic and diastolic), heart rate and respiration (frequency and depth), in words: did not experience an evident change
